The source made the active and inactive calls. The calls are words filed in the database; no cut-off is given here.
Key:
Rattus norvegicus [1] = assay: Anti-inflammatory activity in rat assessed as reduction in carrageenan-induced hind paw oedema at 0.15 mmol/kg, ip pretreated for 5 mins followed by carrageenan challenge measured after 3.5 hrs; type: functional; parameters: scale not given: the % may be the effect or the level left
Lipoxygenase = Lipoxygenase (Glycine max, UniProt Q39829); assay: Inhibition of soybean lipoxygenase using sodium linoleate as substrate measured after 7 mins
[2] = Antioxidant activity assessed as DPPH radical scavenging activity at 200 uM measured after 30 mins relative to control; type: functional
[3] = Antioxidant activity assessed as DPPH radical scavenging activity at 100 uM measured after 30 mins relative to control; type: functional
[4] = Antioxidant activity assessed as DPPH radical scavenging activity at 50 uM measured after 30 mins relative to control; type: functional
Liver [5] = assay: Antioxidant activity in rat hepatic microsomes assessed as inhibition of FeSO4-induced lipid peroxidation measured after 45 mins by spectrophotometry; type: functional, microsome; conditions: 0.75 h
Rattus norvegicus [6] = assay: Hypolipidemic activity in triton WR1339-induced rat model of hyperlipidemia assessed as reduction in plasma total cholesterol level at 150 umol/kg, ip administered after 1 hr post triton WR1339 challenge measured after 24 hrs relative to control; type: functional; parameters: scale not given: the % may be the effect or the level left
Rattus norvegicus [7] = assay: Protection against paracetamol-induced liver injury in rat assessed as reduction in plasma GOT level at 1 mmol/kg, po measured at 24 hrs post paracetamol challenge relative to control; type: functional; parameters: scale not given: the % may be the effect or the level left
Liver [8] = assay: Potency index, ratio of trolox IC50 to test compound IC50 for inhibition FeSO4-induced lipid peroxidation in rat hepatic microsomes; type: functional; conditions: microsome
Rattus norvegicus [9] = assay: Protection against paracetamol-induced liver injury in rat assessed as reduction in plasma GPT level at 1 mmol/kg, po measured at 24 hrs post paracetamol challenge relative to control; type: functional; parameters: scale not given: the % may be the effect or the level left
Rattus norvegicus [10] = assay: Hypolipidemic activity in triton WR1339-induced rat model of hyperlipidemia assessed as reduction in plasma total triglyceride level at 150 umol/kg, ip administered after 1 hr post triton WR1339 challenge measured after 24 hrs relative to control; type: functional; parameters: scale not given: the % may be the effect or the level left
Rattus norvegicus [11] = assay: Protection against paracetamol-induced liver injury in rat assessed as reduction in plasma LDH level at 1 mmol/kg, po measured at 24 hrs post paracetamol challenge relative to control; type: functional; parameters: scale not given: the % may be the effect or the level left
Mus musculus = assay: Anti-inflammatory activity in Balb/C mouse assessed as reduction in carrageenan-induced hind paw oedema at 0.15 mmol/kg, ip pretreated for 1 hr followed by carrageenan challenge; type: functional; parameters: scale not given: the % may be the effect or the level left
Liver [12] = assay: Antioxidant activity in rat hepatic microsomes assessed as inhibition of FeSO4-induced lipid peroxidation at 1 to 1000 uM measured after 45 mins by spectrophotometry; type: functional; conditions: microsome
[13] = Antioxidant activity assessed as DPPH radical scavenging activity at 25 to 200 uM measured after 30 mins; type: functional

| IC50 (Liver [5]) [µM] | SMILES | Activity (Rattus norvegicus [1]) [%] | Activity [2] [%] | Activity [3] [%] | Activity [4] [%] | inhibition (Liver [12]) | other results |
| --- | --- | --- | --- | --- | --- | --- | --- |
| 40 | CCOC(=O)C(CS)NC(=O)/C=C/c1cc(C(C)(C)C)c(O)c(C(C)(C)C)c1 (stereo unspecified) | 61 | 96 | 70 | 37 | – | IC50 (Lipoxygenase): 135 µM |
| 250 | CC(C)(C)c1cc(C(=O)O)cc(C(C)(C)C)c1O | – | – | – | – | – | – |
| 1.6 | Cc1c(C)c2c(c(C)c1O)CCC(C)(C(=O)NCCS)O2 (stereo unspecified) | 67 | 93 | 92 | 61 | – | Activity (Rattus norvegicus [6]): 67.1%; Activity (Rattus norvegicus [7]): 26%; Ratio IC50 (Liver [8]): 10; Activity (Rattus norvegicus [9]): 15%; Activity (Rattus norvegicus [10]): 47.3%; Activity (Rattus norvegicus [11]): 70% |
| – | NCCS [CYSTEAMINE] | – | – | – | – | – | Activity (Mus musculus): 15% |
| – | CCOC(=O)C(CSSCC(NC(=O)c1cc(C(C)(C)C)c(O)c(C(C)(C)C)c1)C(=O)OCC)NC(=O)c1cc(C(C)(C)C)c(O)c(C(C)(C)C)c1 (stereo unspecified) | 36 | – | – | – | inactive | Activity [13]: Active |
| 25 | Cc1c(C)c2c(c(C)c1O)CCC(C)(C(=O)O)O2 (stereo unspecified) [TROLOX] | – | – | – | – | – | – |
| – | O=C(/C=C/c1ccccc1)NCCS | 38 | 86 | 59 | 31 | inactive | – |
| – | O=C(/C=C/c1ccccc1)NCCSSCCNC(=O)/C=C/c1ccccc1 | 42 | – | – | – | inactive | Activity [13]: Active |
| – | CC(C)(C)c1cc(C(=O)NCCSSCCNC(=O)c2cc(C(C)(C)C)c(O)c(C(C)(C)C)c2)cc(C(C)(C)C)c1O | – | – | – | – | inactive | Activity [13]: Active |
| 3 | CCOC(=O)C(CS)NC(=O)C1(C)CCc2c(C)c(O)c(C)c(C)c2O1 (stereo unspecified) | 39 | 93 | 91 | 61 | – | Activity (Rattus norvegicus [6]): 73%; Activity (Rattus norvegicus [7]): 70%; Ratio IC50 (Liver [8]): 10; Activity (Rattus norvegicus [9]): 64%; Activity (Rattus norvegicus [10]): 72.3%; Activity (Rattus norvegicus [11]): 78% |
| – | CCOC(=O)C(CSSCC(NC(=O)/C=C/c1ccccc1)C(=O)OCC)NC(=O)/C=C/c1ccccc1 (stereo unspecified) | – | – | – | – | inactive | Activity [13]: Active |
| – | CCOC(=O)C(CS)NC(=O)/C=C/c1ccccc1 (stereo unspecified) | 35 | 86 | 42 | 27 | inactive | – |
| 30 | CC(C)(C)c1cc(/C=C/C(=O)NCCS)cc(C(C)(C)C)c1O | 67 | 92 | 60 | 34 | – | IC50 (Lipoxygenase): 160 µM |
| – | CCOC(=O)[C@@H](N)CS | – | – | – | – | – | Activity (Mus musculus): 25% |
| 45 | CC(C)(C)c1cc(C(=O)NCCS)cc(C(C)(C)C)c1O | 87 | 85 | 45 | 20 | – | IC50 (Lipoxygenase): 121 µM |
| – | CC(C)Cc1ccc(C(C)C(=O)O)cc1 (stereo unspecified) [IBUPROFEN] | 36 | – | – | – | – | – |
| 200 | CCOC(=O)C(CS)NC(=O)c1cc(C(C)(C)C)c(O)c(C(C)(C)C)c1 (stereo unspecified) | 59 | 85 | 46 | 23 | – | IC50 (Lipoxygenase): 67 µM |

Reference: ChEMBL document CHEMBL4177601, “Dual antioxidant structures with potent anti-inflammatory, hypolipidemic and cytoprotective properties” (Bioorg Med Chem Lett, 2017)
